From ChEMBL document CHEMBL1201861, “Genomics of Drug Sensitity in Cancer screening data, Wellcome Trust Sanger Institute”
Counter-ions that a name gives are not always drawn.

Key:
Experiment in all cases: cells
[1] = test system: COLO-800; assay type: functional, cell-based, Homo sapiens; conditions: Homo sapiens, COLO-800;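 note: growth inhibition of COLO-800 cells, read out with a cell viability assay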
Description: SANGER: Inhibition of human COLO-800 cell growth in a cell viability assay.

[2] = test system: Calu-6; assay type: functional, cell-based, Homo sapiens; conditions: Homo sapiens, Calu-6;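 note: growth of human Calu-6 cells, read out by a cell viability assay, IC50 marking inhibition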
Description: SANGER: Inhibition of human Calu-6 cell growth in a cell viability assay.

[3] = test system: D-263MG; assay type: functional, cell-based, Homo sapiens; conditions: Homo sapiens, D-263MG
Description: SANGER: Inhibition of human D-263MG cell growth in a cell viability assay.

[4] = test system: D-502MG; assay type: functional, cell-based, Homo sapiens; conditions: Homo sapiens, D-502MG
Description: SANGER: Inhibition of human D-502MG cell growth in a cell viability assay.

[5] = test system: DMS-114; assay type: functional, cell-based, Homo sapiens; conditions: Homo sapiens, DMS-114
[6] = test system: DOHH-2; assay type: functional, cell-based, Homo sapiens; conditions: Homo sapiens, DOHH-2;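 note: growth inhibition of human DOHH-2 cells, read out with a cell viability assay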
Description: SANGER: Inhibition of human DOHH-2 cell growth in a cell viability assay.

[7] = test system: EM-2; assay type: functional, cell-based, Homo sapiens; conditions: Homo sapiens, EM-2;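 note: growth inhibition of EM-2 cells, read out with a cell viability assay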
Description: SANGER: Inhibition of human EM-2 cell growth in a cell viability assay.

[8] = test system: ES7; assay type: functional, cell-based, Homo sapiens; conditions: Homo sapiens, ES7;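 note: growth inhibition of cultured human ES7 cells, read out as cell viability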
Description: SANGER: Inhibition of human ES7 cell growth in a cell viability assay.

[9] = test system: EW-11; assay type: functional, cell-based, Homo sapiens; conditions: Homo sapiens, EW-11;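 note: growth inhibition of human EW-11 cells, measured with a cell viability assay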
Description: SANGER: Inhibition of human EW-11 cell growth in a cell viability assay.

[10] = test system: EW-3; assay type: functional, cell-based, Homo sapiens; conditions: Homo sapiens, EW-3;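 note: cell viability assay read-out, IC50 reflects inhibition of growth of the EW-3 cells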
Description: SANGER: Inhibition of human EW-3 cell growth in a cell viability assay.

[11] = test system: HAL-01; assay type: functional, cell-based, Homo sapiens; conditions: Homo sapiens, HAL-01;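 note: growth inhibition of human HAL-01 cells, read out with a cell viability assay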
Description: SANGER: Inhibition of human HAL-01 cell growth in a cell viability assay.

[12] = test system: HD-MY-Z; assay type: functional, cell-based, Homo sapiens; conditions: Homo sapiens, HD-MY-Z;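 note: growth inhibition of HD-MY-Z cells, read out with a cell viability assay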
Description: SANGER: Inhibition of human HD-MY-Z cell growth in a cell viability assay.

[13] = test system: HT; assay type: functional, cell-based, Homo sapiens; conditions: Homo sapiens, HT
Description: SANGER: Inhibition of human HT cell growth in a cell viability assay.

[14] = test system: HT-144; assay type: functional, cell-based, Homo sapiens; conditions: Homo sapiens, HT-144
Description: SANGER: Inhibition of human HT-144 cell growth in a cell viability assay.

[15] = test system: J-RT3-T3-5; assay type: functional, cell-based, Homo sapiens; conditions: Homo sapiens, J-RT3-T3-5;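 note: cell viability assay measuring growth inhibition of human J-RT3-T3-5 cells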
Description: SANGER: Inhibition of human J-RT3-T3-5 cell growth in a cell viability assay.

[16] = test system: K5; assay type: functional, cell-based, Homo sapiens; conditions: Homo sapiens, K5
Description: SANGER: Inhibition of human K5 cell growth in a cell viability assay.

[17] = test system: KMOE-2; assay type: functional, cell-based, Homo sapiens; conditions: Homo sapiens, KMOE-2;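 note: growth inhibition of human KMOE-2 cells, read out with a cell viability assay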
Description: SANGER: Inhibition of human KMOE-2 cell growth in a cell viability assay.

[18] = test system: L-428; assay type: functional, cell-based, Homo sapiens; conditions: Homo sapiens, L-428
Description: SANGER: Inhibition of human L-428 cell growth in a cell viability assay.

[19] = test system: LNCaP-Clone-FGC; assay type: functional, cell-based, Homo sapiens; conditions: Homo sapiens, LNCaP-Clone-FGC
Description: SANGER: Inhibition of human LNCaP-Clone-FGC cell growth in a cell viability assay.

[20] = test system: LOX IMVI; assay type: functional, cell-based, Homo sapiens; conditions: Homo sapiens, LOX IMVI
Description: SANGER: Inhibition of human LOXIMVI cell growth in a cell viability assay.

[21] = test system: LS-411N; assay type: functional, cell-based, Homo sapiens; conditions: Homo sapiens, LS-411N
[22] = test system: LXF-289 cell line; assay type: functional, cell-based, Homo sapiens; conditions: Homo sapiens, LXF-289
Description: SANGER: Inhibition of human LXF-289 cell growth in a cell viability assay.

[23] = test system: MC116; assay type: functional, cell-based, Homo sapiens; conditions: Homo sapiens, MC116;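 note: growth inhibition of MC116 cells, read out with a cell viability assay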
Description: SANGER: Inhibition of human MC116 cell growth in a cell viability assay.

[24] = test system: MLMA; assay type: functional, cell-based, Homo sapiens; conditions: Homo sapiens, MLMA;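 note: growth inhibition of MLMA cells (human), determined through a cell viability readout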
Description: SANGER: Inhibition of human MLMA cell growth in a cell viability assay.

[25] = test system: MV4-11; assay type: functional, cell-based, Homo sapiens, MV-4-11; conditions: Homo sapiens, MV4-11;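 note: cell viability readout measuring growth inhibition of human MV-4-11 cells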
Description: SANGER: Inhibition of human MV-4-11 cell growth in a cell viability assay.

[26] = test system: NB12; assay type: functional, cell-based, Homo sapiens; conditions: Homo sapiens, NB12;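 note: growth inhibition of human NB12 cells, read out by a cell viability assay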
Description: SANGER: Inhibition of human NB12 cell growth in a cell viability assay.

[27] = test system: NCI-H1092; assay type: functional, cell-based, Homo sapiens; conditions: Homo sapiens, NCI-H1092;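 note: cell growth inhibition measured with a cell viability assay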
Description: SANGER: Inhibition of human NCI-H1092 cell growth in a cell viability assay.

[28] = test system: NCI-H1355; assay type: functional, cell-based, Homo sapiens; conditions: Homo sapiens, NCI-H1355;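 note: growth inhibition of human NCI-H1355 cells, read out by a cell viability assay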
Description: SANGER: Inhibition of human NCI-H1355 cell growth in a cell viability assay.

[29] = test system: NCI-H23; assay type: functional, cell-based, Homo sapiens; conditions: Homo sapiens, NCI-H23;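 note: cell viability assay measuring growth inhibition of NCI-H23 cells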
Description: SANGER: Inhibition of human NCI-H23 cell growth in a cell viability assay.

[30] = test system: NCI-H747; assay type: functional, cell-based, Homo sapiens; conditions: Homo sapiens, NCI-H747;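 note: growth inhibition of human NCI-H747 cells, read out by a cell viability assay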
Description: SANGER: Inhibition of human NCI-H747 cell growth in a cell viability assay.

[31] = test system: OVCAR-4; assay type: functional, cell-based, Homo sapiens; conditions: Homo sapiens, OVCAR-4;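 note: growth inhibition of human OVCAR-4 cells, measured with a cell viability assay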
Description: SANGER: Inhibition of human OVCAR-4 cell growth in a cell viability assay.

[32] = test system: RCC10RGB; assay type: functional, cell-based, Homo sapiens; conditions: Homo sapiens, RCC10RGB;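 note: growth inhibition of human RCC10RGB cells, read out by a cell viability assay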
Description: SANGER: Inhibition of human RCC10RGB cell growth in a cell viability assay.

[33] = test system: RH-1; assay type: functional, cell-based, Homo sapiens; conditions: Homo sapiens, RH-1;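 note: growth inhibition of human RH-1 cells, read out with a cell viability assay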
Description: SANGER: Inhibition of human RH-1 cell growth in a cell viability assay.

[34] = test system: RKO; assay type: functional, cell-based, Homo sapiens; conditions: Homo sapiens, RKO;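 note: growth inhibition of human RKO cells, read out with a cell viability assay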
Description: SANGER: Inhibition of human RKO cell growth in a cell viability assay.

[35] = test system: SF-126; assay type: functional, cell-based, Homo sapiens; conditions: Homo sapiens, SF-126;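 note: growth inhibition of human SF126 cells, read out with a cell viability assay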
Description: SANGER: Inhibition of human SF126 cell growth in a cell viability assay.

[36] = test system: SJSA-1; assay type: functional, cell-based, Homo sapiens; conditions: Homo sapiens, SJSA-1;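 note: growth inhibition of human SJSA-1 cells, read out through a cell viability measurement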
Description: SANGER: Inhibition of human SJSA-1 cell growth in a cell viability assay.

[37] = test system: SK-LMS-1; assay type: functional, cell-based, Homo sapiens; conditions: Homo sapiens, SK-LMS-1;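 note: growth inhibition of human SK-LMS-1 cells, read out with a cell viability assay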
Description: SANGER: Inhibition of human SK-LMS-1 cell growth in a cell viability assay.

[38] = test system: SNB-75; assay type: functional, cell-based, Homo sapiens; conditions: Homo sapiens, SNB-75;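 note: cell viability assay measuring growth inhibition of human SNB-75 cells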
Description: SANGER: Inhibition of human SNB75 cell growth in a cell viability assay.

[39] = test system: TE-1; assay type: functional, cell-based, Homo sapiens; conditions: Homo sapiens, TE-1;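 note: growth inhibition of the human TE-1 cell line, read out with a cell viability assay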
Description: SANGER: Inhibition of human TE-1 cell growth in a cell viability assay.

[40] = test system: A498; assay type: functional, cell-based, Homo sapiens; conditions: Homo sapiens, A498;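 note: growth inhibition of human A498 cells, read out with a cell viability assay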
Description: SANGER: Inhibition of human A498 cell growth in a cell viability assay.

[41] = test system: A704; assay type: functional, cell-based, Homo sapiens; conditions: Homo sapiens, A704;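 note: growth inhibition of human A704 cells, read out with a cell viability assay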
Description: SANGER: Inhibition of human A704 cell growth in a cell viability assay.

[42] = test system: BB65-RCC; assay type: functional, cell-based, Homo sapiens; conditions: Homo sapiens, BB65-RCC;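 note: growth inhibition of the cell line, measured with a cell viability assay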
Description: SANGER: Inhibition of human BB65-RCC cell growth in a cell viability assay.

[43] = test system: BV-173; assay type: functional, cell-based, Homo sapiens; conditions: Homo sapiens, BV-173
Description: SANGER: Inhibition of human BV-173 cell growth in a cell viability assay.

[44] = test system: C8166; assay type: functional, cell-based, Homo sapiens; conditions: Homo sapiens, C8166;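 note: growth inhibition of human C8166 cells measured by a cell viability assay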
Description: SANGER: Inhibition of human C8166 cell growth in a cell viability assay.

[45] = test system: TE-10; assay type: functional, cell-based, Homo sapiens; conditions: Homo sapiens, TE-10;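 note: growth inhibition of TE-10 cells, measured by a cell viability assay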
Description: SANGER: Inhibition of human TE-10 cell growth in a cell viability assay.

[46] = test system: TE-11; assay type: functional, cell-based, Homo sapiens; conditions: Homo sapiens, TE-11;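 note: growth inhibition of human TE-11 cells, read out by a cell viability assay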
Description: SANGER: Inhibition of human TE-11 cell growth in a cell viability assay.

[47] = test system: TGW; assay type: functional, cell-based, Homo sapiens; conditions: Homo sapiens, TGW;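 note: growth inhibition of human TGW cells, read out with a cell viability assay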
Description: SANGER: Inhibition of human TGW cell growth in a cell viability assay.

[48] = test system: TK-10; assay type: functional, cell-based, Homo sapiens; conditions: Homo sapiens, TK-10;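 note: growth inhibition of TK-10 cells, read out in a cell viability assay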
Description: SANGER: Inhibition of human TK10 cell growth in a cell viability assay.

[49] = test system: no-11; assay type: functional, cell-based, Homo sapiens; conditions: Homo sapiens;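 note: growth inhibition of human NO-11 cells, read out with a cell viability assay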
Description: SANGER: Inhibition of human no-11 cell growth in a cell viability assay.

COC1=CC(c2cc3ccccc3[nH]2)=N/C1=C\c1[nH]c(C)cc1C [OBATOCLAX MESYLATE]
IC50 [1]: 5.19 µM
IC50 [2]: 0.0903 µM
IC50 [3]: 3.15 µM
IC50 [4]: 6.32 µM
IC50 [5]: 1.27 µM
IC50 [6]: < 0.0625 µM
IC50 [7]: 3.64 µM
IC50 [8]: < 0.0625 µM
IC50 [9]: 5.18 µM
IC50 [10]: 3.41 µM
IC50 [11]: < 0.0625 µM
IC50 [12]: 14.6 µM
IC50 [13]: 0.256 µM
IC50 [14]: < 0.0625 µM
IC50 [15]: 0.118 µM
IC50 [16]: 0.532 µM
IC50 [17]: 0.0904 µM
IC50 [18]: 0.37 µM
IC50 [19]: 2.3 µM
IC50 [20]: 0.0619 µM
IC50 [21]: 0.143 µM
IC50 [22]: 0.26 µM
IC50 [23]: 0.113 µM
IC50 [24]: 0.0753 µM
IC50 [25]: 0.18 µM
IC50 [26]: 0.725 µM
IC50 [27]: 3.08 µM
IC50 [28]: 0.153 µM
IC50 [29]: 10.6 µM
IC50 [30]: 0.143 µM
IC50 [31]: 0.206 µM
IC50 [32]: 1.14 µM
IC50 [33]: 0.222 µM
IC50 [34]: < 0.0625 µM
IC50 [35]: 0.273 µM
IC50 [36]: 0.147 µM
IC50 [37]: 0.314 µM
IC50 [38]: 0.557 µM
IC50 [39]: 0.144 µM
IC50 [40]: > 16 µM
IC50 [41]: 0.0915 µM
IC50 [42]: 0.175 µM
IC50 [43]: 1.83 µM
IC50 [44]: 0.474 µM
IC50 [45]: 0.0958 µM
IC50 [46]: 0.302 µM
IC50 [47]: 0.0174 µM
IC50 [48]: 0.177 µM
IC50 [49]: 1.51 µM

COc1cc(N2CCN(C)CC2)ccc1Nc1ncc2c(n1)N(C)c1ccccc1C(=O)N2C
IC50 [1]: > 8 µM
IC50 [2]: > 8 µM
IC50 [3]: > 8 µM
IC50 [4]: > 8 µM
IC50 [5]: > 8 µM
IC50 [6]: 2.57 µM
IC50 [7]: > 8 µM
IC50 [8]: > 8 µM
IC50 [9]: > 8 µM
IC50 [10]: > 8 µM
IC50 [11]: 2.12 µM
IC50 [12]: > 8 µM
IC50 [13]: > 8 µM
IC50 [14]: > 8 µM
IC50 [15]: > 8 µM
IC50 [16]: > 8 µM
IC50 [17]: > 8 µM
IC50 [18]: > 8 µM
IC50 [19]: > 8 µM
IC50 [20]: > 8 µM
IC50 [21]: 7.05 µM
IC50 [22]: > 8 µM
IC50 [23]: 7.22 µM
IC50 [24]: > 8 µM
IC50 [25]: 1.61 µM
IC50 [26]: > 8 µM
IC50 [27]: > 8 µM
IC50 [28]: > 8 µM
IC50 [29]: > 8 µM
IC50 [30]: > 8 µM
IC50 [31]: > 8 µM
IC50 [32]: > 8 µM
IC50 [33]: > 8 µM
IC50 [34]: 4.68 µM
IC50 [35]: > 8 µM
IC50 [36]: > 8 µM
IC50 [37]: > 8 µM
IC50 [38]: 7.34 µM
IC50 [39]: > 8 µM
IC50 [40]: > 8 µM
IC50 [42]: > 8 µM
IC50 [43]: 7.43 µM
IC50 [44]: > 8 µM
IC50 [45]: 6.89 µM
IC50 [47]: > 8 µM
IC50 [48]: > 8 µM
IC50 [49]: > 8 µM

COc1cc2ncn(-c3cc(OCc4ccccc4S(C)(=O)=O)c(C#N)s3)c2cc1OC [GSK-319347A]
IC50 [1]: > 5 µM
IC50 [2]: > 5 µM
IC50 [3]: > 5 µM
IC50 [4]: > 5 µM
IC50 [5]: > 5 µM
IC50 [6]: > 5 µM
IC50 [7]: > 5 µM
IC50 [8]: > 5 µM
IC50 [9]: > 5 µM
IC50 [10]: > 5 µM
IC50 [11]: > 5 µM
IC50 [12]: > 5 µM
IC50 [13]: > 5 µM
IC50 [14]: > 5 µM
IC50 [15]: > 5 µM
IC50 [16]: > 5 µM
IC50 [17]: > 5 µM
IC50 [18]: > 5 µM
IC50 [19]: > 5 µM
IC50 [20]: > 5 µM
IC50 [21]: > 5 µM
IC50 [22]: > 5 µM
IC50 [23]: > 5 µM
IC50 [24]: > 5 µM
IC50 [25]: > 5 µM
IC50 [26]: > 5 µM
IC50 [27]: > 5 µM
IC50 [28]: > 5 µM
IC50 [29]: > 5 µM
IC50 [30]: > 5 µM
IC50 [31]: > 5 µM
IC50 [32]: > 5 µM
IC50 [33]: > 5 µM
IC50 [34]: > 5 µM
IC50 [35]: > 5 µM
IC50 [36]: > 5 µM
IC50 [37]: > 5 µM
IC50 [38]: > 5 µM
IC50 [39]: > 5 µM
IC50 [40]: > 5 µM
IC50 [42]: > 5 µM
IC50 [43]: > 5 µM
IC50 [44]: > 5 µM
IC50 [45]: > 5 µM
IC50 [47]: > 5 µM
IC50 [48]: > 5 µM
IC50 [49]: > 5 µM
